Data as given in patent publication US20220064141A1, “BENZOPYRIDONE HETEROCYCLIC COMPOUND AND USE THEREOF” (BrightGene Bio-Medical Technology Co., Ltd., priority 2019, published 2022).

Columns and labels:
Format in all cases: cell-based
[1] = tested on: NCI-H358 human non-small cell lung cancer cell with KRAS G12C mutation; experiment: Cell Titer-Glo cell viability, NCI-H358 cells (72 h)
Text: Effect Example 1: Pharmacodynamic Assay 1 (Determination of the efficacy of the compounds of the present disclosure on NCI-H358 human non-small cell lung cancer cell with KRAS G12C mutation)
The following method was used to determine the effect of the compounds of the present disclosure on tumor cell proliferation.
(§1) For the KRAS G12C subtype, NCI-H358 non-small cell lung cancer cells with KRAS G12C mutation were used to determine the efficacy of the compounds in inhibiting cancer cell viability. NCI-H358 cells were cultured in a DMEM medium containing 10% fetal bovine serum, 100 U penicillin and […] streptomycin. The cells were cultured in an incubator with 5% CO2 at 37° C. Cancer cell viability was evaluated by determining the content of ATP with Cell Titer-Glo® kit (Luminescent Cell Viability Assay kit, please refer to the manufacturer's instructions for use) and evaluating the inhibition of cell growth.
(§2) The experimental method was proceeded in accordance with the steps in the instructions for the kit, and was described briefly as follows. The test compounds were first dissolved in DMSO to prepare stock solutions, and then the stock solutions were subjected to gradient dilution with the culture media of the corresponding cells, thereby preparing test samples. The final concentrations of the compounds were in the range of 30 μM to 0.01 nM. Tumor cells in logarithmic growth phase were seeded into a 96-well cell culture plate at an appropriate density. After the cell culture plate was left overnight in an incubator with 5% CO2 at 37° C., the test compound samples were added thereto and then the cells were further cultured for 72 hours. After the incubation was complete, an appropriate volume of Cell Titer-Glo® reagent was added into each well, and the cells were incubated at 37° C. for 1 to 4 hours. Then, the […] was read on a microplate reader.

[2] = tested on: A549 human non-small cell lung cancer cells with high expression of KRAS G12S; experiment: Cell Titer-Glo cell viability, A549 cells (72 h)
Text: (§3) Effect Example 2: Pharmacodynamic Assay 2 (Determination of the efficacy of the compounds of the present disclosure on HCT116 human colon cancer cells with high expression of KRAS G13D and A549 human non-small cell lung cancer cells with high expression of KRAS G12S)
(§4) The following method was used to determine the effects of the compounds of the present disclosure on tumor cell proliferation.
as §1, with “For” for “For the”, “G13D” for “G12C”, “HCT116 human colon cancer cell was used. For KRAS G12S subtype, A549 human” for “NCI-H358”, “cell was used. The” for “cells with KRAS G12C mutation were used to determine the”, “viability was determined. HCT116 cells or A549” for “viability. NCI-H358”
as §2, with “reader. The percentage inhibition rates of the compounds at each concentration point were calculated by comparing the absorbance values of the sample wells with that of the control group (0.3% DMSO), and then non-linear regression analysis of the concentration of the compound vs inhibition rate was performed by using GraphPad Prism 5 software, thereby obtaining IC50 values indicating the inhibitory effects of the compounds on cell proliferation.” for “reader.”

[3] = tested on: HCT116 human colon cancer cells with high expression of KRAS G13D; experiment: Cell Titer-Glo cell viability, HCT116 cells (72 h); settings: HCT-116
Text: as §3, §4
as §1, with “For” for “For the”, “G13D” for “G12C”, “HCT116 human colon cancer cell was used. For KRAS G12S subtype, A549 human” for “NCI-H358”, “cell was used. The” for “cells with KRAS G12C mutation were used to determine the”, “viability was determined. HCT116 cells or A549” for “viability. NCI-H358”
as §2, with “reader. The percentage inhibition rates of the compounds at each concentration point were calculated by comparing the absorbance values of the sample wells with that of the control group (0.3% DMSO), and then non-linear regression analysis of the concentration of the compound vs inhibition rate was performed by using GraphPad Prism 5 software, thereby obtaining IC50 values indicating the inhibitory effects of the compounds on cell proliferation.” for “reader.”

[4] = Homo sapiens, NCI-H358, 72 h, numeric values
[5] = Homo sapiens, NCI-H358, 72 h, class symbols

Structure (SMILES)	IC50 [1, 5] [nM]	further results
C=CC(=O)N1CCN(c2ncnc3c(F)c(-c4c(O)cccc4F)c(Cl)cc23)CC1 [ARS-1620, reference compound]		IC50 ([1]; Homo sapiens, numeric values): 226 nM; IC50 [2]: > 3000 nM; IC50 [3]: > 3000 nM
C=CC(=O)N1CCN(c2c(C#N)c(=O)n(-c3ccccc3C(C)C)c3cc(-c4c(C)ccc5[nH]ncc45)c(Cl)cc23)CC1 [Compound I-1]		IC50 [1, 4]: 1170 nM; IC50 [2]: > 3000 nM; IC50 [3]: > 3000 nM
C=CC(=O)N1CCN(c2c(C#N)c(=O)n(-c3ccccc3C(C)C)c3cc(-c4c(C)ccc5[nH]ncc45)c(Cl)cc23)[C@@H](C)C1 [Compound I-2-1]		IC50 [1, 4]: 1150 nM; IC50 [2]: > 3000 nM; IC50 [3]: > 3000 nM
C=CC(=O)N1CCN(c2c(C#N)c(=O)n(-c3ccccc3C(C)C)c3cc(-c4ccc(F)cc4O)c(Cl)cc23)[C@@H](C)C1 [Compound I-72]		IC50 ([1]; class symbols): < 100 nM
C=CC(=O)N1CCN(c2c(C#N)c(=O)n(-c3ccccc3C(C)C)c3cc(-c4cc(Cl)ccc4N)c(Cl)cc23)[C@@H](C)C1 [Compound I-82]		IC50 ([1]; class symbols): < 100 nM
C=CC(=O)N1CCN(c2c(C#N)c(=O)n(-c3c(C)ccnc3C(C)C)c3cc(-c4c(C)ccc5[nH]ncc45)c(Cl)cc23)[C@@H](C)C1 [Compound I-83-1]	< 100	
C=CC(=O)N1CCN(c2c(C#N)c(=O)n(-c3c(C)ccnc3C(C)C)c3cc(-c4c(C)ccc5[nH]ncc45)c(Cl)cc23)[C@@H](C)C1 [Compound I-83-2]		IC50 ([1]; class symbols): 100 to 1000 nM
C=CC(=O)N1CCN(c2c(C#N)c(=O)n(-c3c(C)ccnc3C(C)C)c3cc(-c4c(OC)ccc(Cl)c4F)c(Cl)cc23)[C@@H](C)C1 [Compound I-84-1]	< 100	
C=CC(=O)N1CCN(c2c(C#N)c(=O)n(-c3c(C)ccnc3C(C)C)c3cc(-c4c(OC)ccc(Cl)c4F)c(Cl)cc23)[C@@H](C)C1 [Compound I-84-2]		IC50 ([1]; class symbols): 100 to 1000 nM
C=CC(=O)N1CCN(c2c(C#N)c(=O)n(-c3ccccc3Cl)c3cc(-c4c(OC)ccc(Cl)c4F)c(Cl)cc23)[C@@H](C)C1 [Compound I-85-1]	100 to 1000	
C=CC(=O)N1CCN(c2c(C#N)c(=O)n(-c3ccccc3Cl)c3cc(-c4c(OC)ccc(Cl)c4F)c(Cl)cc23)[C@@H](C)C1 [Compound I-85-2]		IC50 ([1]; class symbols): 100 to 1000 nM
C=CC(=O)N1CCN(c2c(C#N)c(=O)n(-c3c(C(C)C)ncnc3C(C)C)c3cc(-c4c(C)ccc5[nH]ncc45)c(Cl)cc23)[C@@H](C)C1 [Compound I-86-1]	< 100	
C=CC(=O)N1CCN(c2c(C#N)c(=O)n(-c3c(C(C)C)ncnc3C(C)C)c3cc(-c4c(C)ccc5[nH]ncc45)c(Cl)cc23)[C@@H](C)C1 [Compound I-86-2]		IC50 ([1]; class symbols): 100 to 1000 nM
C=CC(=O)N1CCN(c2c(C#N)c(=O)n(-c3c(C(C)C)ncnc3C(C)C)c3cc(-c4c(OC)ccc(Cl)c4F)c(Cl)cc23)[C@@H](C)C1 [Compound I-87-1]	< 100	
C=CC(=O)N1CCN(c2c(C#N)c(=O)n(-c3c(C(C)C)ncnc3C(C)C)c3cc(-c4c(OC)ccc(Cl)c4F)c(Cl)cc23)[C@@H](C)C1 [Compound I-87-2]		IC50 ([1]; class symbols): 100 to 1000 nM

Continued, in another order:

IC50 [1, 5] [nM]	Structure (SMILES)	further results
100 to 1000	C=CC(=O)N1CCN(c2c(C#N)c(=O)n(-c3ccccc3C(C)C)c3cc(-c4ccc(C#N)cc4N)c(Cl)cc23)[C@@H](C)C1 [Compound I-60]	
< 100	C=CC(=O)N1CCN(c2c(C#N)c(=O)n(-c3ccccc3C(C)C)c3cc(-c4ccc(F)cc4O)c(Cl)cc23)[C@@H](C)C1 [Compound I-61]	
100 to 1000	C=CC(=O)N1CCN(c2c(C#N)c(=O)n(-c3ccccc3C(C)C)c3cc(-c4cnc(N)nc4)c(Cl)cc23)[C@@H](C)C1 [Compound I-62]	
100 to 1000	C=CC(=O)N1CCN(c2c(C#N)c(=O)n(-c3ccccc3C(C)C)c3cc(-c4ccc(F)cc4CO)c(Cl)cc23)[C@@H](C)C1 [Compound I-63]	
100 to 1000	C=CC(=O)N1CCN(c2c(C#N)c(=O)n(-c3ccccc3C(C)C)c3cc(-c4ccc(N)nc4)c(Cl)cc23)[C@@H](C)C1 [Compound I-64]	
100 to 1000	C=CC(=O)N1CCN(c2c(C#N)c(=O)n(-c3ccccc3C(C)C)c3cc(-c4ccccc4CO)c(Cl)cc23)[C@@H](C)C1 [Compound I-65]	
< 100	C=CC(=O)N1CCN(c2c(C#N)c(=O)n(-c3ccccc3C(C)C)c3cc(-c4cc(C)ccc4O)c(Cl)cc23)[C@@H](C)C1 [Compound I-66]	
100 to 1000	C=CC(=O)N1CCN(c2c(C#N)c(=O)n(-c3ccccc3C(C)C)c3cc(-c4ccc(C)c(O)c4)c(Cl)cc23)[C@@H](C)C1 [Compound I-67]	
100 to 1000	C=CC(=O)N1CCN(c2c(C#N)c(=O)n(-c3ccccc3C(C)C)c3cc(-c4ccn(C)c(=O)c4)c(Cl)cc23)[C@@H](C)C1 [Compound I-68]	
< 100	C=CC(=O)N1CCN(c2c(C#N)c(=O)n(-c3ccccc3C(C)C)c3cc(-c4cc(F)ccc4N)c(Cl)cc23)[C@@H](C)C1 [Compound I-69]	
< 100	C=CC(=O)N1CCN(c2c(C#N)c(=O)n(-c3ccccc3C(C)C)c3cc(-c4cc(F)ccc4O)c(Cl)cc23)[C@@H](C)C1 [Compound I-70]	
100 to 1000	C=CC(=O)N1CCN(c2c(C#N)c(=O)n(-c3ccccc3C(C)C)c3cc(-c4cccc(O)c4F)c(Cl)cc23)[C@@H](C)C1 [Compound I-71]	
100 to 1000	C=CC(=O)N1CCN(c2c(C#N)c(=O)n(-c3ccccc3C(C)C)c3cc(-c4cc(O)ccc4F)c(Cl)cc23)[C@@H](C)C1 [Compound I-73]	
> 1000	C=CC(=O)N1CCN(c2c(C#N)c(=O)n(-c3ccccc3C(C)C)c3cc(-c4ccc5[nH]ncc5c4)c(Cl)cc23)[C@@H](C)C1 [Compound I-74]	
100 to 1000	C=CC(=O)N1CCN(c2c(C#N)c(=O)n(-c3ccccc3C(C)C)c3cc(-c4ccccc4C4CC4)c(Cl)cc23)[C@@H](C)C1 [Compound I-75]	
< 100	C=CC(=O)N1CCN(c2c(C#N)c(=O)n(-c3ccccc3C(C)C)c3cc(-c4cc(Cl)cc(C)c4N)c(Cl)cc23)[C@@H](C)C1 [Compound I-76]	
100 to 1000	C=CC(=O)N1CCN(c2c(C#N)c(=O)n(-c3ccccc3C(C)C)c3cc(-c4cccc(N)c4F)c(Cl)cc23)[C@@H](C)C1 [Compound I-77]	
< 100	C=CC(=O)N1CCN(c2c(C#N)c(=O)n(-c3ccccc3C(C)C)c3cc(-c4cc(C(F)(F)F)cc(Cl)c4N)c(Cl)cc23)[C@@H](C)C1 [Compound I-79]	
< 100	C=CC(=O)N1CCN(c2c(C#N)c(=O)n(-c3ccccc3C(C)C)c3cc(-c4cc(C)cc(Cl)c4N)c(Cl)cc23)[C@@H](C)C1 [Compound I-80]	
100 to 1000	C=CC(=O)N1CCN(c2c(C#N)c(=O)n(-c3ccccc3C(C)C)c3cc(-c4cc(C)cc(C)c4N)c(Cl)cc23)[C@@H](C)C1 [Compound I-81]	
